What was measured:
Format in all cases: biochemical
[1] = molecular target: T1, Corynascus thermophilus CDH flavodehydrogenase domain, recombinant wild type (wtDH), amino acids 249-787 of SEQ ID NO: 7 (Thermothelomyces fergusii, UniProt E7D6B9); assay: Steady-state kinetics, DCIP assay: C. thermophilus flavodehydrogenase domain wt; conditions: apparent, pH 5.5, 30° C.
T1 sequence (E7D6B9 249-787): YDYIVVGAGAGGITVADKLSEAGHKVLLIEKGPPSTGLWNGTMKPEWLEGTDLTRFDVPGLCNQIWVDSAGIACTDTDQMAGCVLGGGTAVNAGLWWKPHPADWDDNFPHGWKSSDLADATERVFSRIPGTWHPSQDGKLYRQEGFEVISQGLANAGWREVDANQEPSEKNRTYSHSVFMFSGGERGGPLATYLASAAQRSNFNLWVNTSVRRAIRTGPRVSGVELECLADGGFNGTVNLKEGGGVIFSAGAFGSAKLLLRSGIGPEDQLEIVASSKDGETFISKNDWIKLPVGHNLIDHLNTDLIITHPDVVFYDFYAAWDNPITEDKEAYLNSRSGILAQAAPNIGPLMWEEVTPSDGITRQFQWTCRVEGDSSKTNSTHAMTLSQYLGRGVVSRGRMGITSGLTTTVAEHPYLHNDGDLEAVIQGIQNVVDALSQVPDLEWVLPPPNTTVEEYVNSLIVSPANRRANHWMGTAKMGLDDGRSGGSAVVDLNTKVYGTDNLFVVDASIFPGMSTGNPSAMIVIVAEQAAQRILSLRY
Method: (§1) Enzyme activity was assayed at 30° C. using either the DCIP (Karapetyan et al., 2005 Journal of Biotechnology 121: 34-48) or cytochrome c (Canevascini et al., 1991, European Journal of Biochemistry 198: 43-52) as electron acceptor. […] Stock solutions of carbohydrates used for kinetic measurements were prepared in the respective buffer and allowed to stand overnight for mutarotation, while stock solutions of electron acceptors were prepared in water and immediately used. The reaction stoichiometry is 1 for the two-electron acceptor DCIP (1 mole of DCIP reduced per mole of carbohydrate oxidized), but 2 for the one-electron acceptor cytochrome c. Kinetic constants were calculated by fitting the observed data to the Henri-Michaelis-Menten equation or to the adapted model for substrate inhibition using nonlinear least-squares regression and the program SigmaPlot (Systat Software, San Jose, Calif., USA).
The construct was confirmed by sequencing.
(§2) Recombinant wild-type CDH as well as variants were produced in 1 L baffled flasks. Precultures were grown overnight in 30 mL of YPD medium at 30° C. and 120 rpm. After approximately 18 hours the precultures were transferred into 1 L baffled flasks containing 200 mL BMGY medium without methanol. Induction with methanol was started immediately using a multichannel peristaltic pump (Minipuls Evolution, Gilson, Middleton, Wis., USA). Each flask was supplied eight times a day with methanol yielding a total concentration of 2% (v/v) methanol per day. Increase in activity was monitored using the DCIP and the cytochrome c enzyme assays. Cultivation was stopped at day five of methanol induction, cells removed by centrifugation (4000 rpm, 20 min) and the supernatant set to a final ammonium sulfate concentration of 20%.
The sample was loaded on a 20 mL PHE Sepharose FF column (HR26/20) equilibrated with 50 mM Na-acetate buffer pH 5.5 containing 20% ammonium sulfate. Proteins were eluted by increasing the concentration of the elution buffer (50 mM Na-acetate buffer pH 5.5) from 0 to 100% in 5 column volumes and fractions containing CDH activity were pooled. After diafiltration with a polyethersulfone flat-stack cross flow module with a cut-off of 10 kDa (Viva Flow 50, Sartorius, Göttingen, Germany) until conductivity of 5 mS cm^−1 in 20 mM Na-acetate pH 5.5 the samples were loaded on a 20 mL Q-Source column (HR26/20) equilibrated with a 20 mM Na-acetate buffer pH 5.5. CDH was eluted by increasing the concentration of the elution buffer (50 mM Na-acetate buffer pH 5.5 containing 0.5 M NaCl) from 0 to 100% in 50 column volumes. Fractions were tested for CDH activity and pooled according to the highest Reinheitszahl (RZ, calculated from the absorbance ratio 420 nm/280 nm). […]

[2] = molecular target: Myriococcum thermophilum cellobiose dehydrogenase (CDH, SEQ ID NO: 1) variant C312Y/W316R (Thermothelomyces myriococcoides, UniProt A9XK88, C312Y/W316R); conditions: apparent, DCIP assay, pH 4.5, 30° C.; for kcat: ~ values only estimated by non linear regression
Sequence of Myriococcum thermophilum cellobiose dehydrogenase (CDH, SEQ ID NO: 1) variant C312Y/W316R (A9XK88 entry or part of it C312Y/W316R): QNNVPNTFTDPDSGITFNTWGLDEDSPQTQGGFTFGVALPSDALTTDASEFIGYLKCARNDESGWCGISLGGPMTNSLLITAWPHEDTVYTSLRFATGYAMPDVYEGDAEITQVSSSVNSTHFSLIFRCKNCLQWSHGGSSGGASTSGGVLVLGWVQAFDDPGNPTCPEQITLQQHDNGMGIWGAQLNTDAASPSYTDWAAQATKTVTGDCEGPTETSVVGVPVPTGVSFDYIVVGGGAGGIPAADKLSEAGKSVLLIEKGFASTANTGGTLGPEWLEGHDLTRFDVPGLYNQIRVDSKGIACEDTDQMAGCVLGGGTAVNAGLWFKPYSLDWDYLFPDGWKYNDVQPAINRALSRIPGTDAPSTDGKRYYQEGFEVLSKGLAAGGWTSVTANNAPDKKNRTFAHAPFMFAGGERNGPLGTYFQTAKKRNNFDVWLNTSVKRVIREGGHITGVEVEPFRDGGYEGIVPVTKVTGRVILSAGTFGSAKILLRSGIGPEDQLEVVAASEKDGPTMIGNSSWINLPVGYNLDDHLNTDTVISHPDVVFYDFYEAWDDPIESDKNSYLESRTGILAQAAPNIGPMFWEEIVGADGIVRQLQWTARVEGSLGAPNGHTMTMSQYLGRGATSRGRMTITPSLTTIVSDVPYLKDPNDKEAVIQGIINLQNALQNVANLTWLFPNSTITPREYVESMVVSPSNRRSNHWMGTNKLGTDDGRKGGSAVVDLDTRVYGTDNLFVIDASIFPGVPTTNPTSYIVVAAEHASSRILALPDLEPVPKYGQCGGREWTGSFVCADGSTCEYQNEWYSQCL
Method: as §1
(§3) The M. thermophilum CDH gene (EF492051, SEQ ID NO: 2) was codon-optimized for expression in Pichia pastoris according to the method described in Abad et al., 2010 and WO2010/097462 A1 (SEQ ID NO: 13) and synthesized by Gen-script (Piscataway, N.J., USA). cDNA encoding for M. thermophilum CDH was excised from the plasmid pMTSopt using EcoRI and NotI and cloned into the expression vector pPicZA along with its native signal sequence. Plasmid pCT1 was used as template for the amplification of the C. thermophilus CDH cDNA. Restriction enzymes BstBI and XbaI were used for cloning into the expression vector pPicZB along with its native signal sequence. Mutants of M. thermophilum CDH: C312Y, N313S, W316L, W316R, R622N, N721D, C312Y/W316L, C312Y/W316R and C. thermophiles CDH C310Y were prepared by a two step mutagenesis approach using PCR and DpnI (Li et al., 2002). […] SacI linearized expression plasmids were transformed into electrocompetent X-33 cells and transformants were selected on YPD Zeocin plates ([…]).
as §2
(§4) The sample was loaded on a 20 mL PHE Sepharose FF column (HR26/20) equilibrated with 50 mM Na-acetate buffer pH 5.5 containing 20% ammonium sulfate. Proteins were eluted by increasing the concentration of the elution buffer (50 mM Na-acetate buffer pH 5.5) from 0 to 100% in 5 column volumes and fractions containing CDH activity were pooled. After diafiltration with a polyethersulfone flat-stack cross flow module with a cut-off of 10 kDa (Viva Flow 50, Sartorius, Göttingen, Germany) until conductivity of 5 mS cm^−1 in 20 mM Na-acetate pH 5.5 the samples were loaded on a 20 mL Q-Source column (HR26/20) equilibrated with a 20 mM Na-acetate buffer pH 5.5. CDH was eluted by increasing the concentration of the elution buffer (50 mM Na-acetate buffer pH 5.5 containing 0.5 M NaCl) from 0 to 100% in 50 column volumes. Fractions were tested for CDH activity and pooled according to the highest Reinheitszahl (RZ, calculated from the absorbance ratio 420 nm/280 nm). Purified enzymes were concentrated and diafiltered in 50 mM citrate buffer, pH 5.5, aliquoted and kept at 4° C. for further use.

[3] = molecular target: Myriococcum thermophilum cellobiose dehydrogenase (CDH, SEQ ID NO: 1) variant C312Y (Thermothelomyces myriococcoides, UniProt A9XK88, C312Y); conditions: apparent, DCIP assay, pH 4.5, 30° C.
Sequence of Myriococcum thermophilum cellobiose dehydrogenase (CDH, SEQ ID NO: 1) variant C312Y (A9XK88 entry or part of it C312Y): as the sequence (A9XK88 entry or part of it C312Y/W316R) above, with R295W counted along it
Method: as §1, §3, §2, §4

[4] = molecular target: Myriococcum thermophilum cellobiose dehydrogenase (CDH, SEQ ID NO: 1) variant C312Y/W316L (Thermothelomyces myriococcoides, UniProt A9XK88, C312Y/W316L); conditions: apparent, DCIP assay, pH 4.5, 30° C.; for kcat: ~ values only estimated by non linear regression
Sequence of Myriococcum thermophilum cellobiose dehydrogenase (CDH, SEQ ID NO: 1) variant C312Y/W316L (A9XK88 entry or part of it C312Y/W316L): as the sequence (A9XK88 entry or part of it C312Y/W316R) above, with R295L counted along it
Method: as §1, §3, §2, §4

Row | Structure (SMILES) | kcat [1] | kcat/KM [1] | kcat/KM [2] | kcat [2] | kcat [3] | kcat/KM [3] | kcat/KM [4] | kcat [4]
1 | OC[C@H]1OC(O)[C@H](O)[C@@H](O)[C@@H]1O (stereo partly shown) [Glucose, glucose] | 8.8 s⁻¹ | 79.1 M⁻¹ s⁻¹ | 6.2 M⁻¹ s⁻¹ | 4.3 s⁻¹ | 9.6 s⁻¹ | 50 M⁻¹ s⁻¹ | 13 M⁻¹ s⁻¹ | 6.4 s⁻¹
2 | OC[C@H]1O[C@H](O[C@H]2[C@H](O)[C@@H](O)C(O)O[C@@H]2CO)[C@H](O)[C@@H](O)[C@@H]1O (stereo partly shown) [Maltose, maltose] | 0.86 s⁻¹ | 296 M⁻¹ s⁻¹ | 0.17 M⁻¹ s⁻¹ | ~2.7 s⁻¹ | 0.48 s⁻¹ | 3.5 M⁻¹ s⁻¹ | 0.62 M⁻¹ s⁻¹ | ~0.92 s⁻¹

Source: patent US10184115B2, “Mutated cellobiose dehydrogenase with increased substrate specificity” (DIRECTSENS GMBH, priority 2012, dated 2019)
